Data published in patent publication US8871789B2, “Method of preventing or treating viral infection” (The United States of America, as represented by the …, priority 2010, dated 2014).

Tests used:
[1] = tested on: HSV-1; assay: HSV-1 IE mRNA levels in infected HFF cells; type: cell-based; settings: increasing concentration of DMOG, HFF, FIG. 7
Protocol: FIG. 13 is a line graph showing viral IE (ICP4, ICP27, and ICP22) and control (S15, Sp1, and TBP) mRNA levels in HFF cells treated with DMSO or the indicated concentrations of ML324 for 3 hours and infected with HSV-1 (0.1 PFU per cell) for 3 hours. *P<0.0001, two-way ANOVA with Tukey's post hoc test. Data are means±SEM.
HSV-1 IE mRNA levels of ICP4 and ICP27 decrease in cells infected in the presence of DMOG. Human foreskin fibroblast (HFF) cells were infected with HSV-1 at 0.1 PFU/cell for 3 hrs in the presence of increasing concentrations of DMOG. Cells were harvested and the levels of viral IE (ICP4, ICP27) and cell control (s15) mRNAs were assessed by qRT-PCR.
All experiments were performed as described in Liang et al., Sci. Transl. Med. 5, 167ra5 (2013). N-(3-(dimethylamino)propyl)-4-(8-hydroxyquinolin-6-yl)benzamide (designated ML324) has the following characteristics: N-(3-(dimethylamino)propyl)-4-(8-hydroxyquinolin-6-yl)benzamide (1). LC-MS: rt (min)=3.033; ^1H NMR (400 MHz, DMSO-d6) δ 1.84-1.98 (m, 2H), 2.79 (s, 3H), 2.80 (s, 3H), 3.12 (ddd, J=10.2 Hz, 5.4 Hz and 5.2 Hz, 2H), 3.37 (q, 2H), 7.50 (s, 1H), 7.66 (dd, J=8.2 Hz and 4.3 Hz, 1H), 7.84 (s, 1H), 7.88-7.94 (m, 2H), 7.96-8.02 (m, 2H), 8.50 (d, J=8.2 Hz, 1H), 8.71 (t, J=5.6 Hz, 1H), 8.90 (d, J=4.1 Hz, 1H), 9.34 (brs, 1H); HRMS (ESI) m/z (M+H)^+ C21H24N3O2, 350.1867. found 350.1863.

[2] = tested on: HSV-1; assay: HSV-1 ICP4 protein levels in infected HeLa cells (quantitative western blot); type: cell-based; settings: increasing concentrations of DMOG, HSV-1 0.1 PFU/cell 3 hrs, FIG. 6
Protocol: HSV-1 IE protein levels of ICP4 decrease in cells infected in the presence of DMOG. HeLa cells were infected with HSV-1 at 0.1 PFU/cell for 3 hrs in the presence of increasing concentrations of DMOG. Cells were harvested and the levels of viral IE proteins (ICP4 shown) were determined by quantitative western blot analyses. As the concentration of DMOG is increased, the levels of ICP4 decrease (FIG. 6).

[3] = tested on: HSV-1 IE promoters; assay: ChIP of H3K9me3 / histone H3 on HSV-1 IE promoters in HeLa cells; type: cell-based; settings: 2 mM DMOG 4 hours before infection; FIG. 8
Protocol: Hela cells were pretreated with 2 mM DMOG for 4 hours prior to infection. Cells were infected with 0.1 pfu/cell of HSV-1 for 3 hrs. Standard Chromatin-Immunoprecipitation procedures were preformed (Liang, Vogel, Narayanan, Peng & Kristie, 2009, Nature Med 15:1312-17) to determine the levels of total histone H3 or tri-methylated histone H3 associated with the indicated viral IE promoters.

[4] = tested on: CMV; assay: CMV IE gene expression in HFF cells; type: cell-based; settings: increasing concentration of DMOG, FIG. 9
Excerpt: CMV IE gene expression (IE1 and UL37) and control TBP (Tata binding Protein) in the presence of increasing concentrations of DMOG were also studied (FIG. 9). HFF were pretreated with the indicated concentration of DMOG for 3.5 hrs and infected with CMV for 4 hrs. Total RNA was extracted, reverse-transcribed, and cDNAs were quantitated by qPCR using primers to viral IE genes or control genes.

[5] = tested on: HSV-1; assay: HSV-1 lytic viral yields from HFF cells; type: cell-based; settings: HFF pretreated 5 hrs, HSV-1 0.1 pfu/cell 24 hrs; FIG. 10
Protocol: FIG. 14 is a bar graph showing viral yields from HFF cells treated with DMSO or ML324 for 3 hours and infected with HSV-1 (0.1 PFUper cell) for 24 hours in the presence of the drugs. *P<0.004, one-way ANOVA with Dunnett's post hoc test. Data are means±SEM.
HSV-1 lytic viral yields decrease in the presence of DMOG (FIG. 10). HFF cells were pretreated with DMSO control or JMJD2 inhibitor DMOG for 5 hrs and infected with 0.1 pfu/cell of HSV-1 for 24 hrs in the presence of DMSO or DMOG. The yield of infectious virus derived from each treatment were determined by tittering on Vero cells according to standard procedures.

[6] = tested on: HSV-1; type: cell-based, Balb/c mice; parameters: reduction of viral reactivation (viral yield): unit of the concentration uncertain
Protocol: FIG. 18 is a dot plot showing latently infected ganglia that were explanted in the presence of DMSO, ACV (100 mM), or ML324 (50 mM) for 48 hrs. Viral yields were determined from one half of each ganglia at 48 hrs (DMSO, ACV, ML324) and from the other half of each ganglia after drug reversal for an additional 72 hrs (ACV-R, ML324-R) [Wilcoxon matched pairs signed rank test, ACV vs ACV-R n=8, ML324 vs ML324-R n=10]. Data are means±SEM.
FIG. 19 is a dot plot showing viral yields from HSV-1 latently infected trigeminal ganglia that were explanted in the presence of DMSO, or 2 mM DMOG or 50 mM ML324 for 48 hours (DMSO versus DMOG: P=0.0015, Wilcoxon matched-pairs signed rank test; n=12; DMSO versus ML324: P<0.0001; n=20). Data are means±SEM.
Viral yields decrease from HSV-1 latently infected ganglia explanted in the presence of LSD1 or JMJD2 inhibitors (FIG. 11). Balb/c mice were infected with 5×10^6 PFU HSV-1 (strain F) per eye after corneal scarification. Latently infected mice were sacrificed 45 days post clearance of the primary infection and trigeminal ganglia were rapidly explanted into culture in the presence of 2 mM DMOG, 2 mM TCP, or control (DMSO or ACV, acyclovir) for 48 hours. Post explant incubation, the ganglia were homogenized and briefly sonicated. The reactivated viral yield of each ganglia was determined by titering the clarified supernatant on Vero cells. Statistical comparisons were made using Wilcoxon signed rank test (paired ganglia) with a statistical significance of <0.05. Each data point was the result of a single ganglia divided and treated in the presence and absence of DMSO and DMOG or DMSO and TCP. Therefore, a Wilcoxon signed rank test was used to assess differences between each treated and untreated sample. The significant difference between DMSO control and DMOG was p=0.0018. This test used an exact p-value for small sample sizes with an a level of 0.05. n=20. Analyses were made using Prism (V5.0a) and are expressed as the mean+/−s.e.m.

[7] = tested on: HSV-1; assay: IE mRNA levels in explanted latently infected ganglia; type: cell-based, mice; settings: 7 hours post explant; ICP4 and ICP27 mRNA; FIG. 12
Protocol: Total RNA was isolated and subjected to reverse transcription. The resulting cDNAs were analyzed for viral Immediate Early ICP4 and ICP27 mRNAs relative to an infected cell standard by nested or qPCR. In accordance with an embodiment of the invention, DMOG reduces the levels of viral mRNAs in explanted/reactivated ganglia.
IE gene transcription is repressed in explanted latently infected sensory ganglia in the presence of DMOG (FIG. 12). Total RNA was extracted from ganglia of latently infected mice explanted in the presence of control ACV or DMOG for 7 hours. Random primed cDNA was produced from total RNA using RNAqueous-4PCR and RETROscript (Ambion, Austin, Tex., USA) according to the manufacturer's recommendations. cDNAs were quantitated by nested PCR or qPCR using primers specific for the HSV-1 ICP4 and ICP27 IE mRNAs.

## COC(=O)CNC(=O)C(=O)OC [DMOG, N-methoxyoxoacetyl-glycine methyl ester]
[1]; HSV-1 0.1 PFU/cell 3 hrs
  mRNA levels of ICP4 and ICP27: decrease
[1]
  control mRNA (s15) level decrease: does not
[2]
  levels of ICP4 protein: decrease
[3]
  repressive chromatin (H3K9me3, H3) on HSV-1 IE promoters: accumulation of repressive chromatin
[4]
  control mRNA (TBP) level decrease: does not
[4]; HFF pretreated 3.5 hrs, CMV 4 hrs
  CMV IE mRNA levels (IE1/IE7 and UL37): decrease
[5]
  HSV-1 lytic viral yields: decrease
[6]; 2 mM DMOG, 2 mM TCP or ACV, 48 hours, FIG. 11
  viral yield from explanted latently infected ganglia: decreases
[6]; 2 (unit uncertain), 48 hours explant, FIG. 19
  reduction of viral reactivation (viral yield): ~1.5 log
[7]
  IE gene transcription in explanted latently infected sensory ganglia: repressed
